Experimental data: patent publication US7601751B2, “Indole acetic acid acyl guanidines as β-secretase inhibitors” (Bristol-Myers Squibb Company, priority 2005, dated 2009)

target: T1, BACE1 enzyme (Homo sapiens, UniProt P56817); test: Radioligand displacement assay with a radiolabeled BACE inhibitor on HEK293-9B.A1 cell homogenate; type: binding; settings: HEK293-9B.A1 cell homogenate overexpressing BACE1, 1 nM radioligand, pH 5.0, 1.5 hr at 25° C., read-out: Activity Rating (activity based on IC50 values)
T1 construct: The HEK293-9B.A1 cell line, which overexpresses the BACE1 enzyme, was derived from HEK293 cells; endogenous in cells; washed membrane pellet / cell homogenate
T1 sequence (P56817 46-501): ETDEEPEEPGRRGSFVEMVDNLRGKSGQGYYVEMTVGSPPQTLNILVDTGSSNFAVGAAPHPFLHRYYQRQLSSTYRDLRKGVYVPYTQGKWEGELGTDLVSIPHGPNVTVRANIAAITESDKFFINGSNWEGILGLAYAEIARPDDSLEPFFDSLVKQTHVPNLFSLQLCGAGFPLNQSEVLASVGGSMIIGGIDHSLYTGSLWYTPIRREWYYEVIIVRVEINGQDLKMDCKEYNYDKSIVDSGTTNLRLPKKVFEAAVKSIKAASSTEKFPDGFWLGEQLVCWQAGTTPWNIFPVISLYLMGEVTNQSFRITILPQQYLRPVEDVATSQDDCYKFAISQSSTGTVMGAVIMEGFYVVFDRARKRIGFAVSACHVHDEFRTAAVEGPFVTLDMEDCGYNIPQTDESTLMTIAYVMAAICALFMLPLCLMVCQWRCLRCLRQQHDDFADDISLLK
Description: Radioligand displacement assays with a radiolabeled BACE inhibitor (WO 2004 013098, compound 3, where the methoxy group is substituted for C(^3H)3) were carried out using standard methods (Keen, M. (1999) in Receptor Binding Techniques (Walker, J. M. ed) p. 106 Humana Press, Totowa, N.J.). The HEK293-9B.A1 cell line, which overexpresses the BACE1 enzyme, was derived from HEK293 cells (Simmons, N. L. (1990) A cultured human renal epithelioid cell line responsive to vasoactive intestinal peptide. Exp. Physiol. 75:309-19.) by RAGE™ (Harrington, J. J. et al. (2001) Creation of genome-wide protein expression libraries using random activation of gene expression. Nat. Biotechnol. 19:440-5; U.S. Pat. No. 6,410,266 and 6,361,972). T225 flask cultures of HEK293-9B.A1 were grown to 80% confluency in DMEM supplemented with 2 mM L-glutamine, 10 μg/ml penecillin, 10 μg/ml streptomycin, 3 μg/ml puromycin, 100 nM methotrexate, and 10% fetal bovine serun (Invitrogen, Carlsbad, Calif.), harvested, and resuspended at 2×10^8 cells per 10 ml of lysis buffer consisting of 50 mM HEPES pH 7.0 containing a protease inhibitor cocktail of AEBSF 104 μM, aprotinin 80 nM, leupeptin 2 μM, bestatin 4 μM, pepstatin A 1.5 μM, and E-64 1.4 μM (0.1% of protease inhibitor cocktail P8340, Sigma-Aldrich, St. Louis, Mo.) at 4° C. The resuspended cells were homogenized using a Polytron (Brinkman, Westbury, N.Y.) at setting 6 for 10 sec., then centrifuged at 48,000×g for 10 min. The resulting pellet was washed by repeating the resuspension, homogenization and centrifugation steps. The final pellet was resuspended in buffer at 4° C. to yield a total protein concentration of 5 mg/ml, then aliquots were frozen in liquid nitrogen for further storage at −70° C. Immediately before carrying out a binding assay, an aliquot of cell homogenate was thawed and diluted to a concentration of 100 μg/ml in assay buffer consisting of 50 mM HEPES pH 5.0 and 0.1% CHAPSO. Assays were initiated in polypropylene 96-well plates (Costar, Cambridge, Mass.) by the addition of 200 μl of cell homogenate to 50 μl of assay buffer containing 1 nM radioligand (WO 2004 013098, compound 3, where the methoxy group is substituted for C(^3H)3: 80 Ci/mMol) and various concentrations of unlabelled compounds, and incubated for 1.5 hr. at 25° C. Separation of bound from free radioligand was by filtration on GFF glass fiber filters (Innotech Biosystems International, Lansing, Mich.) using an Innotech cell harvester. Filters were washed three times with 0.3 ml of phosphate buffered saline pH 7.0 at 4° C. and assessed for radioactivity using a Wallac 1450 Microbeta liquid scintillation counter (PerkinElmer, Boston, Mass.). Ki values of competing compounds were derived through Cheng-Prussoff correction of IC50 values calculated using XLfit (IDBS, Guildford, UK).

`Cn1cc(CC(=O)/N=C(\N)NCc2cc(Cl)c(N)c(Cl)c2)c2ccccc21` [Example 5, N-((4-amino-3,5-dichlorobenzylamino)(amino)methylene)-2-(1-methyl-1H-indol-3-yl)acetamide] and `N/C(=N\C(=O)Cc1cn(Cc2ccc(F)cc2)c2ccccc12)NCc1cc(Cl)c(N)c(Cl)c1` [Example 6, N-((4-amino-3,5-dichlorobenzylamino)(amino)methylene)-2-(1-(4-fluorobenzyl)-1H-indol-3-yl)acetamide] cannot be ordered by IC50: over 1000 nM for the first, over 1000 nM for the second.

`CC(=O)Nc1c(Cl)cc(CN/C(N)=N/C(=O)Cc2c[nH]c3ccc(C#N)cc23)cc1Cl` [Example 23, N-(4-{N′-[2-(5-Cyano-1H-indol-3-yl)-acetyl]-guanidinomethyl}-2,6-dichloro-phenyl)-acetamide] and `CC(=O)Nc1c(Cl)cc(CN/C(N)=N/C(=O)Cc2c[nH]c3ccc(Br)cc23)cc1Cl` [Example 20, N-(4-{N′-[2-(5-Bromo-1H-indol-3-yl)-acetyl]-guanidinomethyl}-2,6-dichloro-phenyl)-acetamide] cannot be ordered by IC50: under 100 nM for the first, under 100 nM for the second.

`CC(=O)Nc1c(Cl)cc(CN/C(N)=N/C(=O)Cc2c(C)[nH]c3c(F)cccc23)cc1Cl` [Example 22, N-(2,6-Dichloro-4-{N′-[2-(7-fluoro-2-methyl-1H-indol-3-yl)-acetyl]-guanidinomethyl}-phenyl)-acetamide] and `CC(=O)Nc1c(Cl)cc(CN/C(N)=N/C(=O)Cc2c(C)[nH]c3ccc(F)cc23)cc1Cl` [Example 21] fall in the same range of IC50: 100 to 1000 nM for the first, 100 to 1000 nM for the second.

First: CC(=O)Nc1c(Cl)cc(CN/C(N)=N/C(=O)Cc2c[nH]c3ccc(OCc4ccccc4)cc23)cc1Cl [Example 13, N-(4-{N′-[2-(5-Benzyloxy-1H-indol-3-yl)-acetyl]-guanidinomethyl}-2,6-dichloro-phenyl)-acetamide]
Second: CC(=O)Nc1c(Cl)cc(CN/C(N)=N/C(=O)Cc2c[nH]c3cc(OCc4ccccc4)ccc23)cc1Cl [Example 15, N-(4-{N′-[2-(6-Benzyloxy-1H-indol-3-yl)-acetyl]-guanidinomethyl}-2,6-dichloro-phenyl)-acetamide]
The IC50 of the first is higher: over 1000 nM for the first, 100 to 1000 nM for the second.

`CC(=O)Nc1c(Cl)cc(CN/C(N)=N/C(=O)Cc2c[nH]c3cc(F)ccc23)cc1Cl` [Example 16, N-(2,6-Dichloro-4-{N′-[2-(6-fluoro-1H-indol-3-yl)-acetyl]-guanidinomethyl}-phenyl)-acetamide] and `CC(=O)Nc1c(Cl)cc(CN/C(N)=N/C(=O)Cc2c[nH]c3ccc(F)cc23)cc1Cl` [Example 12, N-(2,6-Dichloro-4-{N′-[2-(5-fluoro-1H-indol-3-yl)-acetyl]-guanidinomethyl}-phenyl)-acetamide] fall in the same range of IC50: 100 to 1000 nM for the first, 100 to 1000 nM for the second.

`CC(=O)Nc1c(Cl)cc(CN/C(N)=N/C(=O)Cc2c(C#N)[nH]c3ccc(Br)cc23)cc1Cl` [Example 25, N-(4-{N′-[2-(5-Bromo-2-cyano-1H-indol-3-yl)-acetyl]-guanidinomethyl}-2,6-dichloro-phenyl)-acetamide] and `CC(=O)Nc1c(Cl)cc(CN/C(N)=N/C(=O)Cc2c(C(=O)NC(C)(C)C)[nH]c3ccc(Br)cc23)cc1Cl` [Example 24, 3-{2-[N′-(4-Acetylamino-3,5-dichloro-benzyl)-guanidino]-2-oxo-ethyl}-5-bromo-1H-indole-2-carboxylic acid tert-butylamide] cannot be ordered by IC50: under 100 nM for the first, under 100 nM for the second.

`COc1ccc2[nH]cc(CC(=O)/N=C(\N)NCc3cc(C)c(NC(C)=O)c(Cl)c3)c2c1` [Example 9, N-(2-Chloro-4-{N′-[2-(5-methoxy-1H-indol-3-yl)-acetyl]-guanidinomethyl}-6-methyl-phenyl)-acetamide] and `COc1ccc2[nH]cc(CC(=O)/N=C(\N)NCc3cc(Cl)c(NC(C)=O)c(Cl)c3)c2c1` [Example 2, N-(2,6-Dichloro-4-{N′-[2-(5-methoxy-1H-indol-3-yl)-acetyl]-guanidinomethyl}-phenyl)-acetamide] fall in the same range of IC50: 100 to 1000 nM for the first, 100 to 1000 nM for the second.

`N/C(=N\C(=O)Cc1c[nH]c2ccc(F)cc12)NCc1cc(Cl)cc(Cl)c1` [Example 4, N-(3,5-Dichloro-benzyl)-N′-[2-(5-fluoro-1H-indol-3-yl)-acetyl]-guanidine] and `COc1ccc2[nH]cc(CC(=O)/N=C(\N)NCc3cc(Cl)cc(Cl)c3)c2c1` [Example 3, N-(3,5-Dichloro-benzyl)-N′-[2-(5-methoxy-1H-indol-3-yl)-acetyl]-guanidine] cannot be ordered by IC50: over 1000 nM for the first, over 1000 nM for the second.

`COc1ccc2[nH]c(C)c(CC(=O)/N=C(\N)NCc3cc(Cl)c(NC(C)=O)c(Cl)c3)c2c1` [Example 10, N-(2,6-Dichloro-4-{N′-[2-(5-methoxy-2-methyl-1H-indol-3-yl)-acetyl]-guanidinomethyl}-phenyl)-acetamide] and `CC(=O)Nc1c(Cl)cc(CN/C(N)=N/C(=O)Cc2c(C)[nH]c3ccccc23)cc1Cl` [Example 11, N-(2,6-Dichloro-4-{N′-[2-(2-methyl-1H-indol-3-yl)-acetyl]-guanidinomethyl}-phenyl)-acetamide] fall in the same range of IC50: 100 to 1000 nM for the first, 100 to 1000 nM for the second.

`CC(=O)Nc1c(Cl)cc(CN/C(N)=N/C(=O)Cc2c[nH]c3cc(Br)ccc23)cc1Cl` [Example 1, N-(4-{N′-[2-(6-Bromo-1H-indol-3-yl)-acetyl]-guanidinomethyl}-2,6-dichloro-phenyl)-acetamide] and `CC(=O)Nc1c(Cl)cc(CN/C(N)=N/C(=O)Cc2c[nH]c3ccc(O)cc23)cc1Cl` [Example 14, N-(2,6-Dichloro-4-{N′-[2-(5-hydroxy-1H-indol-3-yl)-acetyl]-guanidinomethyl}-phenyl)-acetamide] fall in the same range of IC50: 100 to 1000 nM for the first, 100 to 1000 nM for the second.

`CN1CCN(c2ccc(CN/C(N)=N/C(=O)Cc3c[nH]c4ccc(Br)cc34)cc2Cl)CC1` [Example 19, N-[2-(5-Bromo-1H-indol-3-yl)-acetyl]-N′-[3-chloro-4-(4-methyl-piperazin-1-yl)-benzyl]-guanidine] and `CN1CCN(c2ccc(CN/C(N)=N/C(=O)Cc3c[nH]c4ccc(Br)cc34)cc2)CC1` [Example 18, N-[2-(5-Bromo-1H-indol-3-yl)-acetyl]-N′-[4-(4-methyl-piperazin-1-yl)-benzyl]-guanidine] cannot be ordered by IC50: over 1000 nM for the first, over 1000 nM for the second.

`COc1ccc2[nH]cc(CC(=O)/N=C(\N)NCc3cc(Cl)c(N)c(Cl)c3)c2c1` [Example 7, N-((4-amino-3,5-dichlorobenzylamino)(amino)methylene)-2-(5-methoxy-1H-indol-3-yl)acetamide] and `N/C(=N\C(=O)Cc1c[nH]c2ccc(Br)cc12)NCc1cc(Cl)c(N)c(Cl)c1` [Example 17, N-(4-Amino-3,5-dichloro-benzyl)-N′-[2-(5-bromo-1H-indol-3-yl)-acetyl]-guanidine] cannot be ordered by IC50: over 1000 nM for the first, over 1000 nM for the second.

`CC(C(=O)/N=C(\N)NCc1cc(Cl)c(N)c(Cl)c1)c1c[nH]c2ccccc12` (stereo not shown) [Example 8, N-((4-amino-3,5-dichlorobenzylamino)(amino)methylene)-2-(1H-indol-3-yl)propanamide] was tested, and the IC50 was over 1000 nM.
